{
  "source": "patent US20250152616A1",
  "about": "“COMPOSITIONS FOR AND METHODS OF TREATING, PREVENTING, AND/OR MITIGATING PAIN” (Duke University, priority 2022, published 2025)",
  "key": {"ADORA2B": {"target": "T1, ADORA2B (Mus musculus, UniProt Q60614)", "T1 construct": "endogenous in cells; host or cells: primary mouse bone marrow mesenchymal stromal cells (BM-MSCs), passage 1-2", "T1 sequence (Q60614 1-332)": "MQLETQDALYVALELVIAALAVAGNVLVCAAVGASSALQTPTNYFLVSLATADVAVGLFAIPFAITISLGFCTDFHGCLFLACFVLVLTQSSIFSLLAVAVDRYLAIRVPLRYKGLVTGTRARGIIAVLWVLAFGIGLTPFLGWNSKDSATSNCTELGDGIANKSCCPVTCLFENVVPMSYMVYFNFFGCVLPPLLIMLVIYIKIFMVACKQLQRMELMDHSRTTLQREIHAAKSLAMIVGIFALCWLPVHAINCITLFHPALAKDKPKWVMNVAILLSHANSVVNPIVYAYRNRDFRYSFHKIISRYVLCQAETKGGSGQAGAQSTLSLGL", "assay": "RT-qPCR of osteogenic genes in BM-MSCs with ADORA2B inhibitor", "type": "cell-based", "conditions": "BM-MSCs with adenosine 30 μg/mL plus PSB 603, 14 days, vs vehicle DMSO", "method": "MSCs were isolated as previously described with some modifications (Shih Y B, et al. (2019) Sci Adv. 5:eaax1387). Briefly, the femurs, tibiae, vertebrae of mice were harvested, crushed with pestle and mortar in harvest buffer (1% v/v FBS in PBS) to release bone marrow (BM) tissue, filtered through a 40-μm cell strainer, and centrifuged at 200 rcf. Cells were seeded in a 24-well plate at a cell density of 1 million cells/cm^2 in growth media (GM) containing α-MEM, FBS (10% v/v, ThermoFisher, Cat #16000044), penicillin/streptomycin (10000 U/mL; 1% v/v) and cultured in humidified incubator (37° C., 5% CO2). The medium was replaced after 3 days and further cultured for 6 days before passage. […]\nCells, DRG, or bone/marrow tissues were analyzed for gene expression by quantitative real-time polymerase chain reaction (RT-qPCR). […] Quantitative PCR was performed with iTaq Universal SYBR green reagent (Bio-Rad, Cat #1725124) with denaturation at 95° C. for 30 sec for one cycle, and amplification (denaturation+annealing/extension) at 95° C. for 5 sec and 60° C. for 30 sec for 40 cycles on a polymerase chain reaction (PCR) cycler (Bio-Rad, CFX96 Touch). […]\nThe expression level of each target gene was normalized to the housekeeping gene and to their respective controls and presented as fold change expressed as 2^−ΔΔCt values. […]"}, "dissociated DRG neurons [1]": {"test_system": "dissociated DRG neurons", "assay": "Fura-2 calcium imaging of dissociated DRG neurons stimulated with capsaicin", "type": "cell-based, mouse", "conditions": "NGF 200 ng/mL 24 hr vs no NGF; capsaicin 100 nM", "source_text": "DRG were isolated from mice using a modified version of the previously described protocol (Perner C, et al. (2021) STAR Protoc. 2:100333). Briefly, mice were euthanized and dosed in 70% ethanol to prevent fur contamination. Mice were positioned prone, and an incision was made along the spine from the neck to the base of the tail. Under a dissecting microscope, the surrounding soft tissue of the spinal column was removed from the dorsal side by Friedman-Pearson Rongeurs (Fine Science Tools, Foster City, CA, Cat #16021-14) from the mid thoracic region to the lumbosacral joint. The vertebral bone surrounding the DRG was gently crushed and removed with rongeurs exposing the spinal cord. The DRG were carefully extracted near the foramen between the vertebral levels. L3 and L4 DRG were collected for analyses. Dissected DRG were placed directly into ice-cold DMEM-F12 medium (ThermoFisher, Cat #11320033) for in vitro culture, Trizol (ThermoFisher, Cat #15596018) for PCR analyses, or 4% PFA for histology. For cell culture experiments, collected DRG were digested in digestion solution comprised of collagenase type II (Worthington, Lakewood, NJ, Cat #LS004176) and dispase (1.5 mg/mL each) dissolved in DMEM/F12. DRG were agitated in a digestion solution on an orbital shaker at 60 rpm and 37° C. for 20 minutes and repeated thrice with fresh digestion solution. Next, the digestion solution was replaced with trypsin-EDTA (0.025%) in DMEM/F12 and incubated for an additional 15 min to disrupt the remaining cell-to-cell adhesions. The solution was then replaced with DMEM/F12 and FBS (1:3) to neutralize trypsin. DRG were triturated to create a cell suspension and gently layered onto 15% bovine serum albumin (BSA) solution without mixing and centrifuged for 6 min at 280 g with minimal acceleration and no deceleration to separate non-neuronal cells and debris (Owen D E, et al. (2012) Methods Mol Biol. 846:179-187). […]\nIntracellular cytosolic Ca^2+ was evaluated by Fura-2 loaded DRG neurons (Khomula E V, et al. (2019) J Neurosci. 39:7061-7073). […]"}, "dissociated DRG neurons [2]": {"test_system": "dissociated DRG neurons", "assay": "FluoVolt membrane potential imaging of dissociated DRG neurons", "type": "cell-based, mouse", "conditions": "NGF exposure 1 day; capsaicin stimulation", "source_text": "DRG were isolated from mice using a modified version of the previously described protocol (Perner C, et al. (2021) STAR Protoc. 2:100333). Briefly, mice were euthanized and dosed in 70% ethanol to prevent fur contamination. Mice were positioned prone, and an incision was made along the spine from the neck to the base of the tail. Under a dissecting microscope, the surrounding soft tissue of the spinal column was removed from the dorsal side by Friedman-Pearson Rongeurs (Fine Science Tools, Foster City, CA, Cat #16021-14) from the mid thoracic region to the lumbosacral joint. The vertebral bone surrounding the DRG was gently crushed and removed with rongeurs exposing the spinal cord. The DRG were carefully extracted near the foramen between the vertebral levels. L3 and L4 DRG were collected for analyses. Dissected DRG were placed directly into ice-cold DMEM-F12 medium (ThermoFisher, Cat #11320033) for in vitro culture, Trizol (ThermoFisher, Cat #15596018) for PCR analyses, or 4% PFA for histology. For cell culture experiments, collected DRG were digested in digestion solution comprised of collagenase type II (Worthington, Lakewood, NJ, Cat #LS004176) and dispase (1.5 mg/mL each) dissolved in DMEM/F12. […]\nDRG neuron potential changes were evaluated with FluoVolt, a voltage sensitive indicator dye (ThermoFisher, Cat #F10488). […]"}, "TRPV1": {"test_system": "TRPV1", "assay": "Immunofluorescence staining of TRPV1 in cultured DRG neurons", "type": "cell-based, mouse", "conditions": "NGF 200 ng/mL, 1 day incubation, DRG neurons from unfractured mice", "method": "To culture DRG neurons, culture media composed of Neurobasal-A medium (ThermoFisher, Cat #10888022), 2% B27 supplement (ThermoFisher, Cat #17504044), 1% glutamax (ThermoFisher, Cat #35050061), and penicillin/streptomycin (10000 U/mL, 1% v/v, ThermoFisher, Cat #15140122) was used. Cells were treated with or without NGF (200 ng/mL) for 24 hr prior to immunofluorescence imaging. Cells were exposed to NGF (200 ng/mL) for 24 hr (long-term) for calcium and FluoVolt imaging. Cells were cultured on custom-made glass surface with silicone wells. Briefly, cover slides (#1 thickness) were cleaned by agitating in 0.5 M NaOH for 30 minutes followed by subsequent rinsing in dH2O followed by 100% ethanol and air-dried. Wells were produced in cured polydimethylsiloxane (PDMS, Sylgard 184, Ellsworth Adhesives, Germantown, WI) with a 8-mm biopsy punch and bonding to the cover slides. […]\nSections were heated for antigen retrieval in citrate buffer (MilliporeSigma, Cat #C9999) for 20 min, permeabilized in 0.1% Triton X-100 in PBS for 10 min, followed by blocking for 1 hr in blocking solution comprised of 3% BSA, 0.26 M glycine, 5% normal donkey serum in Tris buffered saline (TBS) at room temperature. […] Fluorescence intensity was quantified by ImageJ software and presented in arbitrary units."}, "ADORA1": {"target": "T2, ADORA1 (Mus musculus, UniProt Q60612)", "T2 construct": "endogenous in cells; host or cells: primary dissociated mouse L3-L4 DRG neurons", "T2 sequence (Q60612 1-326)": "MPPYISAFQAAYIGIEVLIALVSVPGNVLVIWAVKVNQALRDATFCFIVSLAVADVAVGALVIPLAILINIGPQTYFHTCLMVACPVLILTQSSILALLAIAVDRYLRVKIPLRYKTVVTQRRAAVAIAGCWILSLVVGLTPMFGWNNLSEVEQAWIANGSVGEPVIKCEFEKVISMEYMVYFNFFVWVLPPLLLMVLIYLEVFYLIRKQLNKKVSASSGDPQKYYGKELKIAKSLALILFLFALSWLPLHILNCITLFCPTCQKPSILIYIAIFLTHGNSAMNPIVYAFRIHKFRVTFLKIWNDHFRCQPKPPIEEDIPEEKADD", "assay": "Fura-2 calcium imaging of NGF-exposed, adenosine-treated DRG neurons with ADORA1 inhibitor", "type": "cell-based", "conditions": "NGF-exposed DRG treated with adenosine 5 μM plus DPCPX 100 nM; capsaicin 100 nM; vehicle DMSO", "from_the_text": "DRG were isolated from mice using a modified version of the previously described protocol (Perner C, et al. (2021) STAR Protoc. 2:100333). Briefly, mice were euthanized and dosed in 70% ethanol to prevent fur contamination. Mice were positioned prone, and an incision was made along the spine from the neck to the base of the tail. Under a dissecting microscope, the surrounding soft tissue of the spinal column was removed from the dorsal side by Friedman-Pearson Rongeurs (Fine Science Tools, Foster City, CA, Cat #16021-14) from the mid thoracic region to the lumbosacral joint. The vertebral bone surrounding the DRG was gently crushed and removed with rongeurs exposing the spinal cord. The DRG were carefully extracted near the foramen between the vertebral levels. L3 and L4 DRG were collected for analyses. […] For cell culture experiments, collected DRG were digested in digestion solution comprised of collagenase type II (Worthington, Lakewood, NJ, Cat #LS004176) and dispase (1.5 mg/mL each) dissolved in DMEM/F12. DRG were agitated in a digestion solution on an orbital shaker at 60 rpm and 37° C. for 20 minutes and repeated thrice with fresh digestion solution. […]"}},
  "data": [
    {"compound": "CCCn1c(=O)[nH]c2nc(-c3ccc(S(=O)(=O)N4CCN(c5ccc(Cl)cc5)CC4)cc3)[nH]c2c1=O", "note": "[PSB 603]", "values": [
      {"measurement": "adenosine mediated upregulation of osteogenic markers (Runx2, Sp7, Ibsp)", "setting": "ADORA2B", "result": "attenuated"}
    ]},
    {"compound": "NGF: nerve growth factor, used as model molecule for in vitro sensitization of DRG neurons", "values": [
      {"measurement": "functional responses of DRG neurons to capsaicin (Fura-2 intensity)", "setting": "dissociated DRG neurons [1]", "result": "increased"},
      {"measurement": "membrane potential of DRG neurons (FluoVolt)", "setting": "dissociated DRG neurons [2]", "result": "increased"},
      {"measurement": "TRPV1 receptor expression in TUBB3-positive neurons", "setting": "TRPV1", "result": "significantly increased"}
    ]},
    {"compound": "CCCn1c(=O)c2[nH]c(C3CCCC3)nc2n(CCC)c1=O", "note": "[DPCPX, 8-Cyclopentyl-1,3-dipropylxanthine]", "values": [
      {"measurement": "average and peak fluorescence intensity vs vehicle control lacking DPCPX", "setting": "ADORA1", "result": "increase"}
    ]}
  ]
}
